Results: US20110130380A1, “Heteroaryl Kinase Inhibitors” (priority 2009, published 2011)

What follows are molecules tested against Cdk9/cyclinT1 (Homo sapiens, UniProt P50750) (assay: Cdk9/cyclinT1 IMAP Protocol (fluorescence polarization kinase assay)). Conditions: Cdk9_cyclinT1_IC50, Table V; generated using one of the two Cdk9/cyclinT1 assays (IMAP or Alpha Screen), not stated which; ATP 6 uM.
Cdk9/cyclinT1, sequence (P50750 whole entry): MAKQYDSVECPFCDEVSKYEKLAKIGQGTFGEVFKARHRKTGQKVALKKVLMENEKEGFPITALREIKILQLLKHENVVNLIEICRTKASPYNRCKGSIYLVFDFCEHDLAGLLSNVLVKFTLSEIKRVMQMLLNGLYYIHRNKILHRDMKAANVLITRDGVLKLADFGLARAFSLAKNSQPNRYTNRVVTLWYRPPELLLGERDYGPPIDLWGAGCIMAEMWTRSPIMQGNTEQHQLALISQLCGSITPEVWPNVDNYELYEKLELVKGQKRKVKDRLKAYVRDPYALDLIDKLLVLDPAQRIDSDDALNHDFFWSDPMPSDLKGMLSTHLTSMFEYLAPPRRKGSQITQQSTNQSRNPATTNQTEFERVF
Cdk9/cyclinT1, sequence (O60563 whole entry partner): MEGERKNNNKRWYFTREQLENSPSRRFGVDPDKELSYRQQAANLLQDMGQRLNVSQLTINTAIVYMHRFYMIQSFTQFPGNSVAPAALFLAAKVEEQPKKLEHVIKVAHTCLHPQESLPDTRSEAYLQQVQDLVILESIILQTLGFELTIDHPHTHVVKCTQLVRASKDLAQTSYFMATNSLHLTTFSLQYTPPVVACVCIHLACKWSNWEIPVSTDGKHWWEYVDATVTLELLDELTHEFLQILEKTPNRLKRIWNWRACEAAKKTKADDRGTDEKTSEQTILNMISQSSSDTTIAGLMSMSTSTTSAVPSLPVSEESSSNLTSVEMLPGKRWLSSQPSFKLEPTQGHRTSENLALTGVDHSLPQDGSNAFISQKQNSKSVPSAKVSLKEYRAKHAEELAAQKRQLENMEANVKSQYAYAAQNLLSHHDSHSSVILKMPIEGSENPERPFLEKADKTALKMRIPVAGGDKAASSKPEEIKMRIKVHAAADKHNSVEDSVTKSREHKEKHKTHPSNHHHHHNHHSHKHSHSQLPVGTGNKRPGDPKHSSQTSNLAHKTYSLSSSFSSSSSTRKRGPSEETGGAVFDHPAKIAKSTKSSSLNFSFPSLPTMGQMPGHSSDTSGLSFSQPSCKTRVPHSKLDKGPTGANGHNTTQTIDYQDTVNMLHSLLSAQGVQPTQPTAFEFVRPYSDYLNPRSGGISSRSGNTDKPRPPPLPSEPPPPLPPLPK
CC1(C)C[C@@H](CNc2cccc(-c3cc(NC(=O)[C@@H]4CCCNC4)ncc3Cl)n2)CCO1 (single isomer, unassigned) [Example 116, (R)-piperidine-3-carboxylic acid {5′-chloro-6-[((S)-2,2-dimethyl-tetrahydro-pyran-4-ylmethyl)-amino]-[2,4′]bipyridinyl-2′-yl}-amide or (R)-piperidine-3-carboxylic acid {5′-chloro-6-[((R)-2,2-dimethyl-tetrahydro-pyran-4-ylmethyl)-amino]-[2,4′]bipyridinyl-2′-yl}-amide] gave an IC50 of 2 nM.
With COC(=O)N[C@@H]1CC[C@H](C(=O)Nc2cc(-c3nc(NCC4CCOCC4)ccc3Cl)c(Cl)cn2)C1 [Example 106, ((lR,3S)-3-{3,5′-Dichloro-6-[(tetrahydro-pyran-4-ylmethyl)-amino]-[2,4′]bipyridinyl-2′-ylcarbamoyl}-cyclopentyl)-carbamic acid methyl ester] the IC50 was under 8 nM.
CO[C@H]1CNC[C@@H](C(=O)Nc2cc(-c3cccc(NCC4CCOCC4)n3)c(Cl)cn2)C1 (single isomer, unassigned) [Example 212] was tested, and the IC50 was 171 nM.
Molecule COC[C@@H]1C[C@@H](C(=O)Nc2cc(-c3cccc(NCC4(C)CCOCC4)n3)c(Cl)cn2)CN1 [Example 239, (3R,5S)-5-Methoxymethyl-pyrrolidine-3-carboxylic acid {5′-chloro-6-[(4-methyl-tetrahydro-pyran-4-ylmethyl)-amino]-[2,4′]bipyridinyl-2′-yl}-amide] has an IC50 of 1 nM.
In the case of CC[C@@H]1CC[C@@H](C(=O)Nc2cc(-c3ccc(F)c(NCC4CCOCC4)n3)c(Cl)cn2)CN1 (racemic) [Example 250, (3R,6R)-/(3S,6S)-6-Ethyl-piperidine-3-carboxylic acid {5′-chloro-5-fluoro-6-[(tetrahydro-pyran-4-ylmethyl)-amino]-[2,4′]bipyridinyl-2′-yl}-amide], the IC50 is reported as 1 nM.
For C[C@H](O)CNc1cccc(-c2cc(NC(=O)[C@@H]3CCCNC3)ncc2Cl)n1 [Example 31, (R)-Piperidine-3-carboxylic acid [5′-chloro-6-((S)-2-hydroxy-propylamino)-[2,4′]bipyridinyl-2′-yl]-amide], the IC50 was 46 nM.
Work on CC[C@@H]1CC[C@@H](C(=O)Nc2cc(-c3ccc(F)c(NCC4CCOCC4)n3)ccn2)CN1 (racemic) [Example 251, (3R,6R)-/(3S,6S)-6-Ethyl-piperidine-3-carboxylic acid {5-fluoro-6-[(tetrahydro-pyran-4-ylmethyl)-amino]-[2,4′]bipyridinyl-2′-yl}-amide] yielded an IC50 of 1 nM.
For O=C(Nc1cc(-c2cccc(NCc3cc(F)cc(F)c3)n2)c(Cl)cn1)[C@@H]1CCCNC1 [Example 80, (R)-Piperidine-3-carboxylic acid [5′-chloro-6-(3,5-difluoro-benzylamino)-[2,4′]bipyridinyl-2′-yl]-amide], the IC50 was under 8 nM.
O=C(Nc1cc(-c2cccc(NCC3CCOCC3)n2)c(Cl)cn1)[C@@H]1CC[C@H](C(F)(F)F)NC1 (racemic) [Example 160, (3R,6R)-/(3S,6S)-6-Trifluoromethyl-piperidine-3-carboxylic acid {5′-chloro-6-[(tetrahydro-pyran-4-ylmethyl)-amino]-[2,4′]bipyridinyl-2′-yl}-amide] gave an IC50 of 11 nM.
With C[C@@H]1CC[C@@H](C(=O)Nc2cc(-c3cccc(NC[C@@H]4CCOC(C)(C)C4)n3)c(Cl)cn2)CN1 (mixture of isomers) [Example 225, (3R,6R)-/(3S,6S)-6-Methyl-piperidine-3-carboxylic acid {5′-chloro-6-[((R)-2,2-dimethyl-tetrahydro-pyran-4-ylmethyl)-amino]-[2,4′]bipyridinyl-2′-yl}-amide] the IC50 was 1 nM.
With CNCCC(=O)Nc1cc(-c2cccc(NCC3CCOCC3)n2)c(Cl)cn1 [Example 64, N-{5′-Chloro-6-[(tetrahydro-pyran-4-ylmethyl)-amino]-[2,4′]bipyridinyl-2′-yl}-3-methylamino-propionamide] the IC50 was 37 nM.
Work on C[C@H]1CC[C@H](C(=O)Nc2cc(-c3ccc(F)c(NCC4CCOCC4)n3)c(Cl)cn2)CN1 (single isomer, unassigned) [Example 190] yielded an IC50 of 3 nM.
O=C(Nc1cc(-c2nc(NCC3CCOCC3)ccc2F)c(Cl)cn1)C1CNCCOC1 (single isomer, unassigned) [Example 222] gave an IC50 of 25 nM.
For C[C@@H]1CC[C@@H](C(=O)Nc2cc(-c3cccc(NC[C@H]4CCOC(C)(C)C4)n3)ccn2)CN1 (mixture of isomers) [Example 228, (3R,6R)-/(3S,6S)-6-Methyl-piperidine-3-carboxylic acid {6-[((S)-2,2-dimethyl-tetrahydro-pyran-4-ylmethyl)-amino]-[2,4′]bipyridinyl-2′-yl}-amide], the IC50 was 2 nM.
Molecule COC[C@@H]1CC[C@@H](C(=O)Nc2cc(-c3cccc(NCC4CCOCC4)n3)c(Cl)cn2)CN1 (racemic) [Example 221, (3R,6S)-/(3S,6R)-6-Methoxymethyl-piperidine-3-carboxylic acid {5′-chloro-6-[(tetrahydro-pyran-4-ylmethyl)-amino]-[2,4′]bipyridinyl-2′-yl}-amide] has an IC50 of 3 nM.
C[C@@H](Nc1cccc(-c2cc(NC(=O)[C@@H]3CCCNC3)ncc2Cl)n1)C1CCCCC1 [Example 76, (R)-Piperidine-3-carboxylic acid [5′-chloro-6-((R)-1-cyclohexyl-ethylamino)-[2,4′]bipyridinyl-2′-yl]-amide] showed an IC50 of 15 nM.
C[C@H]1CC[C@H](C(=O)Nc2cc(-c3ccc(F)c(NCC4CCOCC4)n3)c(Cl)cn2)CN1C (single isomer, unassigned) [Example 197] was tested, and the IC50 was 4 nM.
Molecule O=C(Nc1cc(-c2cccc(NC[C@H]3CCCOC3)n2)c(Cl)cn1)[C@@H]1CCCNC1 (single isomer, unassigned) [Example 78] has an IC50 of under 8 nM.
CS(=O)(=O)N1CCC[C@H](C(=O)Nc2cc(-c3nc(NCC4CCOCC4)ccc3Cl)c(Cl)cn2)C1 [Example 108, (S)-1-Methanesulfonyl-piperidine-3-carboxylic acid {3,5′-dichloro-6-[(tetrahydro-pyran-4-ylmethyl)-amino]-[2,4′]bipyridinyl-2′-yl}-amide] gave an IC50 of under 8 nM.
With CC[C@H]1CC[C@H](C(=O)Nc2cc(-c3ccc(F)c(NCC4CCOCC4)n3)c(Cl)cn2)CN1 (single isomer, unassigned) [Example 257] the IC50 was 5 nM.
CC(C)CNc1cccc(-c2cc(NC(=O)[C@@H]3CCCNC3)ncc2Cl)n1 [Example 22, (R)-Piperidine-3-carboxylic acid (5′-chloro-6-isobutylamino-[2,4′]bipyridinyl-2′-yl)-amide] was tested, and the IC50 was 33 nM.
O=C(Nc1cc(-c2cccc(NCC3CCOCC3)n2)c(Cl)cn1)[C@@H]1CCCNC1 [Example 3, (R)-Piperidine-3-carboxylic acid {5′-chloro-6-[(tetrahydro-pyran-4-ylmethyl)-amino]-[2,4′]bipyridinyl-2′-yl}-amide] was tested, and the IC50 was 1 nM.
For O=C(Nc1cc(-c2cccc(NCC3CCOCC3)n2)c(Cl)cn1)C1CCCOC1 (stereo not shown) [Example 62, Tetrahydro-pyran-3-carboxylic acid {5′-chloro-6-[(tetrahydro-pyran-4-ylmethyl)-amino]-[2,4′]bipyridinyl-2′-yl}-amide], the IC50 was 19 nM.
For CC(=O)N1CCC[C@@H](C(=O)Nc2cc(-c3cccc(NCC4CCOCC4)n3)c(Cl)cn2)C1 [Example 82, (R)-1-acetyl-piperidine-3-carboxylic acid {5′-chloro-6-[(tetrahydro-pyran-4-ylmethyl)-amino]-[2,4′]bipyridinyl-2′-yl}-amide], the IC50 was 631 nM.
Molecule COCCNc1cccc(-c2cc(NC(=O)[C@@H]3CCCNC3)ncc2Cl)n1 [Example 26, (R)-Piperidine-3-carboxylic acid [5′-chloro-6-(2-methoxy-ethylamino)-[2,4′]bipyridinyl-2′-yl]-amide] has an IC50 of 32 nM.
C[C@@H]1CC[C@@H](C(=O)Nc2cc(-c3ccc(F)c(NCC4CCOCC4)n3)c(Cl)cn2)CN1 (single isomer, unassigned) [Example 189] gave an IC50 of 1 nM.
Molecule CO[C@H]1CNC[C@@H]1C(=O)Nc1cc(-c2cccc(NCC3CCOCC3)n2)c(Cl)cn1 [Example 138, (3S,4R)-4-Methoxy-pyrrolidine-3-carboxylic acid {5′-chloro-6-[(tetrahydro-pyran-4-ylmethyl)-amino]-[2,4′]bipyridinyl-2′-yl}-amide] has an IC50 of under 8 nM.
Molecule O=C(Nc1cc(-c2cccc(NCC3CCOCC3)n2)c(Cl)cn1)C1(F)CCCNC1 (stereo not shown) [Example 95, 3-Fluoro-piperidine-3-carboxylic acid {5′-chloro-6-[(tetrahydro-pyran-4-ylmethyl)-amino]-[2,4′]bipyridinyl-2′-yl}-amide] has an IC50 of 167 nM.
With COC(=O)N1CCC[C@H](C(=O)Nc2cc(-c3nc(NC[C@@H]4CCOC(C)(C)C4)ccc3Cl)c(Cl)cn2)C1 (single isomer, unassigned) [Example 174] the IC50 was 1 nM.
Work on C[C@@H]1CC[C@@H](C(=O)Nc2cc(-c3cccc(NCC4CCOCC4)n3)c(Cl)cn2)CN1 (single isomer, unassigned) [Example 146] yielded an IC50 of 1 nM.
For O=C(Nc1cc(-c2cccc(NCC3CCCCO3)n2)c(Cl)cn1)[C@@H]1CCCNC1 (stereo partly drawn) [Example 34, (R)-Piperidine-3-carboxylic acid {5′-chloro-6-[(tetrahydro-pyran-2-ylmethyl)-amino]-[2,4′]bipyridinyl-2′-yl}-amide], the IC50 was 10 nM.
Work on O=C(Nc1cc(-c2nc(NCC3CCOCC3)ccc2Cl)c(Cl)cn1)[C@H]1CCCNC1 [Example 98, (S)-Piperidine-3-carboxylic acid {3,5′-dichloro-6-[(tetrahydro-pyran-4-ylmethyl)-amino]-[2,4′]bipyridinyl-2′-yl}-amide] yielded an IC50 of 14 nM.

Same assay, conditions: Cdk9_cyclinT1_IC50, generated using one of the two Cdk9/cyclinT1 assays (IMAP or Alpha Screen), not specified per value; ATP 6 uM
With O=C(Nc1cc(-c2cccnc2)c(Cl)cn1)[C@@H]1CCCNC1 [Example 305, (R)-Piperidine-3-carboxylic acid (5′-chloro-[3,4′]bipyridinyl-2′-yl)-amide] the IC50 was 376 nM.
O=C(Nc1cc(-c2cnc(Cl)c(NCC3CCOCC3)c2)c(Cl)cn1)[C@@H]1CCCNC1 [Example 302, (R)-Piperidine-3-carboxylic acid {6,5′-dichloro-5-[(tetrahydro-pyran-4-ylmethyl)-amino]-[3,4′]bipyridinyl-2′-yl}-amide] was tested, and the IC50 was under 8 nM.
